Measured values taken from PubChem BioAssay (NCI).
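Briefly, cells in 96-well plates were exposed to five compound concentrations for 48 h, and endpoints were estimated by linear interpolation. GI50 is the concentration that inhibits growth by half. Definition used: TGI = concentration required for complete inhibition of growth.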

What was measured:
Test in all cases: DTP human tumour cell line panel, 48 h
786-0 renal = tested on: 786-0 renal
A498 renal = tested on: A498 renal
A549 NSCLC = tested on: A549 NSCLC
ACHN renal = tested on: ACHN renal
BT-549 breast = tested on: BT-549 breast
CAKI-1 renal = tested on: CAKI-1 renal
COLO 205 colon = tested on: COLO 205 colon
DU-145 prostate = tested on: DU-145 prostate
EKVX NSCLC = tested on: EKVX NSCLC
HCC-2998 colon = tested on: HCC-2998 colon
HCT-116 colon = tested on: HCT-116 colon
HCT-15 colon = tested on: HCT-15 colon
HOP-62 NSCLC = tested on: HOP-62 NSCLC
HOP-92 NSCLC = tested on: HOP-92 NSCLC
HS 578T breast = tested on: HS 578T breast
HT29 colon = tested on: HT29 colon
IGROV1 ovarian = tested on: IGROV1 ovarian
KM12 colon = tested on: KM12 colon
LOX IMVI melanoma = tested on: LOX IMVI melanoma
M14 melanoma = tested on: M14 melanoma
MALME-3M melanoma = tested on: MALME-3M melanoma
MCF7 breast = tested on: MCF7 breast
MDA-MB-231 breast = tested on: MDA-MB-231 breast
MDA-MB-435 = tested on: MDA-MB-435
NCI-H226 lung = tested on: NCI-H226 lung
NCI-H23 lung = tested on: NCI-H23 lung
NCI-H460 lung = tested on: NCI-H460 lung
NCI-H522 lung = tested on: NCI-H522 lung
NCI/ADR-RES ovarian = tested on: NCI/ADR-RES ovarian
OVCAR-3 ovarian = tested on: OVCAR-3 ovarian
OVCAR-4 ovarian = tested on: OVCAR-4 ovarian
OVCAR-5 ovarian = tested on: OVCAR-5 ovarian
OVCAR-8 ovarian = tested on: OVCAR-8 ovarian
PC-3 prostate = tested on: PC-3 prostate
RPMI-8226 leukemia = tested on: RPMI-8226 leukemia
RXF 393 renal = tested on: RXF 393 renal
SF-268 CNS = tested on: SF-268 CNS
SF-295 CNS = tested on: SF-295 CNS
SF-539 CNS = tested on: SF-539 CNS
SK-MEL-2 melanoma = tested on: SK-MEL-2 melanoma
SK-MEL-28 melanoma = tested on: SK-MEL-28 melanoma
SK-MEL-5 melanoma = tested on: SK-MEL-5 melanoma
SK-OV-3 ovarian = tested on: SK-OV-3 ovarian
SN12C renal = tested on: SN12C renal
SNB-19 CNS = tested on: SNB-19 CNS
SNB-75 CNS = tested on: SNB-75 CNS
SW-620 colon = tested on: SW-620 colon
T-47D breast = tested on: T-47D breast
TK-10 renal = tested on: TK-10 renal
U251 CNS = tested on: U251 CNS
UACC-257 melanoma = tested on: UACC-257 melanoma
UACC-62 melanoma = tested on: UACC-62 melanoma
UO-31 renal = tested on: UO-31 renal

With `NC(=O)c1ncn(C2OC(CO)C(O)C2O)c1N` (stereo unspecified) the GI50 (786-0 renal) was > 100 µM, the TGI (786-0 renal) was > 100 µM and the GI50 (A498 renal) was > 100 µM. The TGI (A498 renal) was > 100 µM, the GI50 (A549 NSCLC) was > 100 µM and the TGI (A549 NSCLC) was > 100 µM. The GI50 (ACHN renal) was > 100 µM, the TGI (ACHN renal) was > 100 µM and the GI50 (BT-549 breast) was > 100 µM. For the same compound, the TGI (BT-549 breast) was > 100 µM, the GI50 (CAKI-1 renal) was > 100 µM and the TGI (CAKI-1 renal) was > 100 µM. The GI50 (COLO 205 colon) was > 100 µM, the TGI (COLO 205 colon) was > 100 µM and the GI50 (DU-145 prostate) was 72.2 µM. The TGI (DU-145 prostate) was > 100 µM, the GI50 (EKVX NSCLC) was > 100 µM and the TGI (EKVX NSCLC) was > 100 µM. The GI50 (HCC-2998 colon) was > 100 µM, the TGI (HCC-2998 colon) was > 100 µM and the GI50 (HCT-116 colon) was > 100 µM. For the same compound, the TGI (HCT-116 colon) was > 100 µM, the GI50 (HCT-15 colon) was > 100 µM and the TGI (HCT-15 colon) was > 100 µM. The GI50 (HOP-62 NSCLC) was > 100 µM, the TGI (HOP-62 NSCLC) was > 100 µM and the GI50 (HOP-92 NSCLC) was > 100 µM. The TGI (HOP-92 NSCLC) was > 100 µM, the GI50 (HS 578T breast) was > 100 µM and the TGI (HS 578T breast) was > 100 µM. The GI50 (HT29 colon) was > 100 µM, the TGI (HT29 colon) was > 100 µM and the GI50 (IGROV1 ovarian) was > 100 µM. The TGI (IGROV1 ovarian) was > 100 µM, the GI50 (KM12 colon) was > 100 µM and the TGI (KM12 colon) was > 100 µM. The GI50 (LOX IMVI melanoma) was > 100 µM, the TGI (LOX IMVI melanoma) was > 100 µM and the GI50 (M14 melanoma) was > 100 µM. The TGI (M14 melanoma) was > 100 µM, the GI50 (MALME-3M melanoma) was > 100 µM and the TGI (MALME-3M melanoma) was > 100 µM. For the same compound, the GI50 (MCF7 breast) was > 100 µM, the TGI (MCF7 breast) was > 100 µM and the GI50 (MDA-MB-231 breast) was > 100 µM. The TGI (MDA-MB-231 breast) was > 100 µM, the GI50 (MDA-MB-435) was > 100 µM and the TGI (MDA-MB-435) was > 100 µM. The GI50 (NCI-H226 lung) was > 100 µM, the TGI (NCI-H226 lung) was > 100 µM and the GI50 (NCI-H23 lung) was > 100 µM. The TGI (NCI-H23 lung) was > 100 µM, the GI50 (NCI-H460 lung) was > 100 µM and the TGI (NCI-H460 lung) was > 100 µM. The GI50 (NCI-H522 lung) was > 100 µM, the TGI (NCI-H522 lung) was > 100 µM and the GI50 (NCI/ADR-RES ovarian) was > 100 µM. For the same compound, the TGI (NCI/ADR-RES ovarian) was > 100 µM, the GI50 (OVCAR-3 ovarian) was > 100 µM and the TGI (OVCAR-3 ovarian) was > 100 µM. The GI50 (OVCAR-4 ovarian) was > 100 µM, the TGI (OVCAR-4 ovarian) was > 100 µM and the GI50 (OVCAR-5 ovarian) was > 100 µM. The TGI (OVCAR-5 ovarian) was > 100 µM, the GI50 (OVCAR-8 ovarian) was 62.2 µM and the TGI (OVCAR-8 ovarian) was > 100 µM. For the same compound, the GI50 (PC-3 prostate) was > 100 µM, the TGI (PC-3 prostate) was > 100 µM and the GI50 (RPMI-8226 leukemia) was > 100 µM. The TGI (RPMI-8226 leukemia) was > 100 µM, the GI50 (RXF 393 renal) was > 100 µM and the TGI (RXF 393 renal) was > 100 µM. The GI50 (SF-268 CNS) was > 100 µM, the TGI (SF-268 CNS) was > 100 µM and the GI50 (SF-295 CNS) was > 100 µM. For the same compound, the TGI (SF-295 CNS) was > 100 µM, the GI50 (SF-539 CNS) was > 100 µM and the TGI (SF-539 CNS) was > 100 µM. For the same compound, the GI50 (SK-MEL-2 melanoma) was > 100 µM, the TGI (SK-MEL-2 melanoma) was > 100 µM and the GI50 (SK-MEL-28 melanoma) was > 100 µM. The TGI (SK-MEL-28 melanoma) was > 100 µM, the GI50 (SK-MEL-5 melanoma) was > 100 µM and the TGI (SK-MEL-5 melanoma) was > 100 µM. The GI50 (SK-OV-3 ovarian) was > 100 µM, the TGI (SK-OV-3 ovarian) was > 100 µM and the GI50 (SN12C renal) was > 100 µM. For the same compound, the TGI (SN12C renal) was > 100 µM, the GI50 (SNB-19 CNS) was > 100 µM and the TGI (SNB-19 CNS) was > 100 µM. For the same compound, the GI50 (SNB-75 CNS) was > 100 µM, the TGI (SNB-75 CNS) was > 100 µM and the GI50 (SW-620 colon) was > 100 µM. The TGI (SW-620 colon) was > 100 µM, the GI50 (T-47D breast) was > 100 µM and the TGI (T-47D breast) was > 100 µM. For the same compound, the GI50 (TK-10 renal) was > 100 µM, the TGI (TK-10 renal) was > 100 µM and the GI50 (U251 CNS) was > 100 µM. The TGI (U251 CNS) was > 100 µM, the GI50 (UACC-257 melanoma) was > 100 µM and the TGI (UACC-257 melanoma) was > 100 µM. The GI50 (UACC-62 melanoma) was > 100 µM, the TGI (UACC-62 melanoma) was > 100 µM and the GI50 (UO-31 renal) was > 100 µM. For the same compound, the TGI (UO-31 renal) was > 100 µM.
